Results as given in article PMC5354814, “In silico and in vitro drug screening identifies new therapeutic approaches for Ewing sarcoma” (Oncotarget, 2016).
Where two headings read alike, the source gives them in different places.

Experiments:
[1] = design: method as in ref 19 (a number printed in a supplementary file, which may have a reference list of its own: not looked up in the article's list); settings: 2.5 µg/mL; cited from earlier work
[2] = design: method as in ref 19 (a number printed in a supplementary file, which may have a reference list of its own: not looked up in the article's list); settings: 0.625 - 10 mg gold/kg p.o.; cited from earlier work
A673 cells = assay: siRNA silencing of EWS-FLI1 followed by auranofin treatment (CellTiter-Blue); assay type: cell-based; settings: then auranofin 72 h
Procedure: To knock down the expression of EWS-FLI1 in A673 Ewing cells, we designed two different siRNAs, corresponding to the sequence within the 3′ downstream half of EWS-FLI1 mRNA (siFLI1-#3) and the sequence of the breakpoint of EWS-FLI1 type I mRNA (siBPEF1) respectively. To examine whether the siRNAs could abolish the expression of EWS-FLI1, the effects of siRNAs on the protein levels of EWS-FLI1 were analyzed by western blot (see Supplementary methods).
(B) Cell viability was assessed by the CellTiter Blue assay in A673 cells treated by siControl, siFLI1-#3 or siBPEF1 for 48 h then followed by the incubation of auranofin ranging from 7.8 nmol/L to 1 μmol/L for 72h. Data are presented as the mean ± SD of three independent experiments performed in triplicate. (C) In vivo studies of auranofin, ganetespib and the combination treatment in an EWS xenograft mice model (n = 12 per group). The percentage of survival rate in control, auranofin treated, ganetespib treated, and auranofin in combination with ganetespib treated groups.
Predict drugs using three computational resolved on the 4–20% Mini-PROTEAN TGXTM approaches Precast Gels (Bio-Rad, Hercules, CA) and transferred onto PVDF membranes (Bio-Rad, Hercules, CA).
Disease-based approach: We used the disease Immunoblotting was done with the following antibodies: signature to query the drug expression database and rabbit polyclonal anti-FLI1 (C-19) (Santa Cruz selected the top 20 negatively scored hits. siRNA-based Biotechnology, Dallas, TX), mouse monoclonal anti-approach: We used the siEWS-FLI1 mediated signature β-actin (Sigma, St. Louis, MO), HRP conjugated goat to query the drug expression database and selected the top anti-rabbit IgG (Cell Signaling, Danvers, MA) and 20 positively scored hits. […] Membranes were developed using ECL database and select the top 20 negatively scored hits. […]
(Lafayette, CO). […] After 72 h of auranofin treatment, cell viability was evaluated using the 18. […]

SK-ES-1 = assay: In vitro high-throughput screen of FDA-approved drug library (CellTiter-Glo); assay type: cell-based; settings: 1 μmol/L drug, 72 hours
Procedure: (§1) We screened, in parallel to the three computational approaches, an FDA-approved drug library containing 2,316 drugs (1,536 unique chemical entities). […] The drug screening study protocol employed is summarized in Supplementary Table S1.
(§2) Cells were grown to 80–90% confluence, harvested and aliquoted into 384-well plates (black μClear microplates, Greiner bio-one, Germany) at concentrations of 750–1,500 cells per well in a total volume of 25 μl/well using a Matrix Wellmate (Thermo Scientific). Cells were cultured for 72 hours in a 5% CO2 atmosphere at 37°C. Aliquots of 25 μl CellTiter-Glo® Reagent (Promega) were added directly to each well, the plates were incubated at room temperature for 20 min and the luminescence signal was measured according to the manufacturer's protocol. The measurements were made using Infinite® M200 Pro plate reader (Tecan, Switzerland). […] Data were normalized to percentage inhibition. […]
(§3) (A) Color scale for drug inhibition values. […]

Hs 919.T. = assay: as above; assay type: cell-based; settings: 1 μmol/L drug, 72 hours, control cell line
Procedure: as §1, §2, §3

RD-ES = assay: as above; assay type: cell-based; settings: 1 μmol/L drug, 72 hours
Procedure: as §1, §2, §3

A673 = assay: as above; assay type: cell-based; settings: 1 μmol/L drug, 72 hours
Procedure: as §1, §2, §3

CC(=O)OC[C@H]1O[C@@H]([S-])[C@H](OC(C)=O)[C@@H](OC(C)=O)[C@@H]1OC(C)=O.CCP(CC)CC.[Au+] [Auranofin, auranofin]
pokeweed mitogen-induced immunoglobulin production [1]: inhibited
suboptimal delayed hypersensitivity response [2]: stimulatory effect
IC50 (A673 cells; siBPEF1 48 h, read-out: IC50 (siBPEF1)): > 1000 nM
IC50 (A673 cells; siControl 48 h, read-out: IC50 (siControl)): 270 ± 20 nM
IC50 (A673 cells; siFLI1-#3 48 h, read-out: IC50 (siFLI1-#3)): > 1000 nM
% Inhibition SK-ES-1 (SK-ES-1): 99%
% Inhibition Hs 919.T. (Hs 919.T.): < 50%
% Inhibition RD-ES (RD-ES): 100%
% Inhibition A673 (A673): 98%
